Measured values published in patent US8669252B2, “Prolylcarboxypeptidase inhibitors” (Merck Sharp & Dohme Corp., priority 2010, dated 2014).

Experiments:
human PrCP = human PrCP (Homo sapiens (Human), UniProt P42785); test: biochemical
Procedure: The assay was performed using a Hamilton Star liquid handling workstation. The assay employed the internally quenched fluorescent substrate (1S)-1-carboxy-5-[(2,4-dinitrophenyl)amino]pentyl N-[(7-methoxy-2-oxo-2H-chromen-4-yl)acetyl]-L-alanyl-L-prolinate prepared in house.
The assay also contained 2% DMSO used to solubilize the substrate and inhibitor. Inhibitors were prepared in 100% DMSO and serial diluted (in 100% DMSO) to generate 11 point titration curves. Either 39 uL of human or mouse PrCP enzyme was added to the wells of the assay plate, followed by a 1 uL addition of the serially diluted inhibitor and mixed three times using a 30 uL mix volume. The reaction was initiated by the addition of 10 uL substrate and mixed three times using a 30 uL mix volume. […] IC50 values were calculated by comparing the resulting rates of reaction of the inhibited and control initial velocities.
The enzymes were diluted in a mixture of 10 mM NaOAc (pH 5.5)/100 mM NaCl buffer containing 25 ug/mL bovine serum albumin that had been warmed to 37° C. in a water bath. The PrCP inhibitor test compounds were plated in 100% DMSO with a highest concentration of 500 uM. There were 12 dilution points for each compound tested including a blank with DMSO only. […]

[1] = in vivo; cited from earlier work
[2] = test system: obese, leptin deficient mice; conditions: systemic administration to obese; cited from earlier work
rats = conditions: intracerebroventricular administration to rats; cited from earlier work

human PrCP, sequence (P42785 46-496): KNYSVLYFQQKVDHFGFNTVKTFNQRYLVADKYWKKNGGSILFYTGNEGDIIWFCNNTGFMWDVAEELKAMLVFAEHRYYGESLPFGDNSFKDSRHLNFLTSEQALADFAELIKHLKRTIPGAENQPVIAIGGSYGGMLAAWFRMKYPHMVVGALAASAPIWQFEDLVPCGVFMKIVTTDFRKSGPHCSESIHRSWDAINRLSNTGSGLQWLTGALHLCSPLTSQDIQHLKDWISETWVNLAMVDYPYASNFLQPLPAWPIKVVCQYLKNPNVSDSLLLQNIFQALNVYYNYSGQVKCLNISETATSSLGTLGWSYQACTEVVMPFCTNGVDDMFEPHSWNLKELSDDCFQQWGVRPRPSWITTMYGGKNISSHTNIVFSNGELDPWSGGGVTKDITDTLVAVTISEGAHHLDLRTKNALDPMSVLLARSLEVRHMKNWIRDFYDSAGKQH

| Compound | weight loss, of body weight for drug compared to placebo [1] | also measured |
| --- | --- | --- |
| O=C(NC(c1ccc(F)cc1)c1ccc(F)cc1)C1CCC(N2CCOCC2)CC1c1ccc(F)cc1 (single isomer, unassigned) [Example 4, N-[bis(4-fluorophenyl)methyl]-2-(4-fluorophenyl)-4-(morpholin-4-yl)cyclohexanecarboxamide] |  | IC50 (human PrCP): 2.1 nM |
| CCN[C@@H](C)Cc1cccc(C(F)(F)F)c1 [dexfenfluramine] | 5%-10% |  |
| CCCCCCCCCCC[C@@H](C[C@@H]1OC(=O)[C@H]1CCCCCC)OC(=O)[C@H](CC(C)C)NC=O [orlistat] | 5%-10% |  |
| CC(C)(N)Cc1ccccc1 [phentermine] | 5%-10% |  |
| CC(C)CC(N(C)C)C1(c2ccc(Cl)cc2)CCC1 (stereo not shown) [sibutramine] | 5%-10% |  |
| t-butyl carbamate-prolyl prolinal [BPP] |  | overnight food intake [2]: suppression of overnight food intake; overnight food intake (rats): suppression of overnight food intake |
